Measured values reported in patent publication US20260184663A1, “INDENE COMPOUNDS, PHARMACEUTICAL COMPOSITIONS THEREOF, AND THEIR THERAPEUTIC APPLICATIONS” (NucMito Pharmaceuticals co. Ltd., priority 2022, published 2026).

What was measured:
Format in all cases: cell-based
[1] = system: A431 (epidermoid carcinoma); test: Antiproliferative activity (CCK-8 cell viability), A431; conditions: Homo sapiens, 72 h, read-out: Antiproliferative activity in cancerous cells, A431 (inhibition of cell growth); for inhibition at 3.3 µM: A-431, Compound concentration: 3.3 μM; for inhibition at 10 µM: A-431, Compound concentration: 10 μM
Summary of the method: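 This growth inhibition assay used A431 cells maintained in Dulbecco's modified Eagle's medium plus 10% fetal bovine serum. Cells were seeded in 96-well plates, treated with compound for 72 h at 37° C., and then given 10 μL CCK-8 solution. After a further 4 h, absorbance was read at 450 nm.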

HepG2 (liver cancer) = test: Antiproliferative activity (CCK-8 cell viability), HepG2; conditions: Homo sapiens, 72 h, read-out: Antiproliferative activity in cancerous cells, HepG2 (inhibition of cell growth); for inhibition at 3.3 µM: Compound concentration: 3.3 μM; for inhibition at 10 µM: Compound concentration: 10 μM
Summary of the method: (§1)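 Growth inhibition graded in bands from percent viability against DMSO vehicle, read as CCK-8 absorbance at 450 nm. Compound tested at 3.3, 10 or 30 μM for 72 h, 37 °C; media contained 10% FBS: DMEM for HepG2/SW480, MEM for HeLa, F-12K for A549.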

HeLa (cervical cancer) = test: Antiproliferative activity (CCK-8 cell viability), HeLa; conditions: Homo sapiens, 72 h, read-out: Antiproliferative activity in cancerous cells, HELA (inhibition of cell growth); for inhibition at 3.3 µM: Compound concentration: 3.3 μM; for inhibition at 10 µM: Compound concentration: 10 μM
Summary of the method: as §1

[2] = system: B16F10 (malignant melanoma); test: Antiproliferative activity (CCK-8 cell viability), B16F10; conditions: Mus musculus, 72 h, read-out: Antiproliferative activity in cancerous cells, B16F10 (inhibition of cell growth); for inhibition at 3.3 µM: B16-F10, Compound concentration: 3.3 μM; for inhibition at 10 µM: B16-F10, Compound concentration: 10 μM
Summary of the method: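 Cell growth inhibition was measured in B16F10 malignant melanoma cells with a Cell Counting Kit-8 viability assay. Cells were maintained in DMEM plus 10% fetal bovine serum, seeded at 2,000-5,000 cells/well in 96-well plates, and treated for 72 h at 37° C. Viability was expressed relative to DMSO-treated vehicle control wells.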

[3] = system: A549 (lung adenocarcinoma); test: Antiproliferative activity (CCK-8 cell viability), A549; conditions: Homo sapiens, 72 h, read-out: Antiproliferative activity in cancerous cells, A549 (inhibition of cell growth); for inhibition at 3.3 µM: Compound concentration: 3.3 μM; for inhibition at 10 µM: Compound concentration: 10 μM
Summary of the method: as §1

[4] = system: MDA-MB-231 (breast cancer); test: Antiproliferative activity (CCK-8 cell viability), MDA-MB-231; conditions: Homo sapiens, 72 h, read-out: Antiproliferative activity in cancerous cells, MDA-MB-231 (inhibition of cell growth); for inhibition at 3.3 µM: Compound concentration: 3.3 μM; for inhibition at 10 µM: Compound concentration: 10 μM
Summary of the method: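 Growth inhibition of human MDA-MB-231 breast cancer cells was assessed with a Cell Counting Kit-8. Cells cultured in DMEM plus 10% FBS were seeded at 2,000-5,000 cells/well, treated after attachment, and kept 72 h at 37° C. CCK-8 solution (10 μL) was added for 4 h, and absorbance at 450 nm was compared with DMSO-treated controls.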

SW480 (colon cancer) = test: Antiproliferative activity (CCK-8 cell viability), SW480; conditions: Homo sapiens, 72 h, read-out: Antiproliferative activity in cancerous cells, SW480 (inhibition of cell growth); for inhibition at 3.3 µM: Compound concentration: 3.3 μM; for inhibition at 10 µM: Compound concentration: 10 μM
Summary of the method: as §1

| Compound | inhibition at 3.3 µM [1] | inhibition at 10 µM [1] | inhibition at 3.3 µM (HepG2 (liver cancer)) | inhibition at 10 µM (HepG2 (liver cancer)) | inhibition at 3.3 µM (HeLa (cervical cancer)) | inhibition at 10 µM (HeLa (cervical cancer)) | inhibition at 3.3 µM [2] | inhibition at 10 µM [2] | inhibition at 3.3 µM [3] | inhibition at 10 µM [3] | inhibition at 3.3 µM [4] | inhibition at 10 µM [4] | inhibition at 3.3 µM (SW480 (colon cancer)) | inhibition at 10 µM (SW480 (colon cancer)) |
| --- | --- | --- | --- | --- | --- | --- | --- | --- | --- | --- | --- | --- | --- | --- |
| CC1=C(CC(=O)O)c2cc(F)ccc2/C1=C\c1cccc(Oc2cccc(Cl)c2)c1 [C101, (Z)-2-(1-(3-(3-Chlorophenoxy)benzylidene)-5-fluoro-2-methyl-1H-inden-3-yl)acetic acid] | 30 to 50% | ≥ 50% | < 30% | ≥ 50% | < 30% | 30 to 50% | ≥ 50% | ≥ 50% | < 30% | < 30% | < 30% | < 30% | < 30% | 30 to 50% |
| COc1ccc(Oc2cccc(/C=C3/C(C)=C(CC(=O)O)c4cc(F)ccc43)c2)cc1Cl [C102, (Z)-2-(1-(3-(3-Chloro-4-methoxyphenoxy)benzylidene)-5-fluoro-2-methyl-1H-inden-3-yl)acetic acid] | ≥ 50% | ≥ 50% | ≥ 50% | ≥ 50% | < 30% | ≥ 50% | ≥ 50% | ≥ 50% | ≥ 50% | ≥ 50% | ≥ 50% | ≥ 50% | < 30% | ≥ 50% |
| CC1=C(CC(=O)O)c2cc(F)ccc2/C1=C\c1cccc(Oc2ccc(O)c(Cl)c2)c1 [C103, (Z)-2-(1-(3-(3-Chloro-4-hydroxyphenoxy)benzylidene)-5-fluoro-2-methyl-1H-inden-3-yl)acetic acid] | 30 to 50% | ≥ 50% | < 30% | ≥ 50% | < 30% | ≥ 50% | ≥ 50% | ≥ 50% | 30 to 50% | ≥ 50% | < 30% | ≥ 50% | < 30% | ≥ 50% |
| CC1=C(CC(=O)O)c2cc(Cl)ccc2/C1=C\c1cccc(Oc2ccc(O)cc2)c1 [C104, (Z)-2-(5-Chloro-1-(3-(4-hydroxyphenoxy)benzylidene)-2-methyl-1H-inden-3-yl)acetic acid] | ≥ 50% | ≥ 50% | < 30% | ≥ 50% | ≥ 50% | ≥ 50% | ≥ 50% | ≥ 50% | < 30% | ≥ 50% | < 30% | ≥ 50% | < 30% | ≥ 50% |
| CC1=C(CC(=O)O)c2cc(Cl)ccc2/C1=C\c1cccc(Oc2ccc(C(F)(F)F)cc2)c1 [C105, (Z)-2-(5-Chloro-2-methyl-1-(3-(4-(trifluoromethyl)phenoxy)benzylidene)-1H-inden-3-yl)acetic acid] | ≥ 50% | ≥ 50% | ≥ 50% | ≥ 50% | ≥ 50% | ≥ 50% | ≥ 50% | ≥ 50% | ≥ 50% | ≥ 50% | ≥ 50% | ≥ 50% | ≥ 50% | ≥ 50% |
| CCc1ccc2c(c1)C(CC(=O)O)=C(C)/C2=C/c1cccc(Oc2ccc(C(F)(F)F)cc2)c1 [C106, (Z)-2-(5-Ethyl-2-methyl-1-(3-(4-(trifluoromethyl)phenoxy)benzylidene)-1H-inden-3-yl)acetic acid] | 30 to 50% | ≥ 50% | ≥ 50% | ≥ 50% | ≥ 50% | ≥ 50% | ≥ 50% | ≥ 50% | ≥ 50% | ≥ 50% | ≥ 50% | ≥ 50% | ≥ 50% | ≥ 50% |
| COc1cc(Oc2cccc(/C=C3/C(C)=C(CC(=O)O)c4cc(F)ccc43)c2)ccc1Cl [C107, (Z)-2-(1-(3-(4-Chloro-3-methoxyphenoxy)benzylidene)-5-fluoro-2-methyl-1H-inden-3-yl)acetic acid] | ≥ 50% | ≥ 50% | < 30% | ≥ 50% | < 30% | ≥ 50% | ≥ 50% | ≥ 50% | ≥ 50% | ≥ 50% | ≥ 50% | ≥ 50% | 30 to 50% | ≥ 50% |
| CC1=C(CC(=O)O)c2cc(Br)ccc2/C1=C\c1cccc(Oc2ccc(Cl)cc2)c1 [C108, (Z)-2-(5-Bromo-1-(3-(4-chlorophenoxy)benzylidene)-2-methyl-1H-inden-3-yl)acetic acid] | ≥ 50% | ≥ 50% | < 30% | ≥ 50% | < 30% | ≥ 50% | ≥ 50% | ≥ 50% | < 30% | ≥ 50% | ≥ 50% | ≥ 50% | < 30% | 30 to 50% |
| CC1=C(CC(=O)O)c2cc(Br)ccc2/C1=C\c1cccc(Oc2ccccc2)c1 [C110, (Z)-2-(5-Bromo-2-methyl-1-(3-phenoxybenzylidene)-1H-inden-3-yl)acetic acid] | < 30% | ≥ 50% | < 30% | ≥ 50% | < 30% | ≥ 50% | ≥ 50% | ≥ 50% | < 30% | ≥ 50% | < 30% | ≥ 50% | < 30% | 30 to 50% |
